Consider one compound from publication PMC8276662, “Synergy of alanine and gentamicin to reduce nitric oxide for elevating killing efficacy to antibiotic-resistant Vibrio alginolyticus” (Virulence, 2021).

The target in the assay is T1, CysJ (rCysJ; NOS-like protein) (Vibrio alginolyticus, UniProt A0A2I3CBL6).
T1 construct: dimer by blue native PAGE
T1 sequence (A0A2I3CBL6 1-623): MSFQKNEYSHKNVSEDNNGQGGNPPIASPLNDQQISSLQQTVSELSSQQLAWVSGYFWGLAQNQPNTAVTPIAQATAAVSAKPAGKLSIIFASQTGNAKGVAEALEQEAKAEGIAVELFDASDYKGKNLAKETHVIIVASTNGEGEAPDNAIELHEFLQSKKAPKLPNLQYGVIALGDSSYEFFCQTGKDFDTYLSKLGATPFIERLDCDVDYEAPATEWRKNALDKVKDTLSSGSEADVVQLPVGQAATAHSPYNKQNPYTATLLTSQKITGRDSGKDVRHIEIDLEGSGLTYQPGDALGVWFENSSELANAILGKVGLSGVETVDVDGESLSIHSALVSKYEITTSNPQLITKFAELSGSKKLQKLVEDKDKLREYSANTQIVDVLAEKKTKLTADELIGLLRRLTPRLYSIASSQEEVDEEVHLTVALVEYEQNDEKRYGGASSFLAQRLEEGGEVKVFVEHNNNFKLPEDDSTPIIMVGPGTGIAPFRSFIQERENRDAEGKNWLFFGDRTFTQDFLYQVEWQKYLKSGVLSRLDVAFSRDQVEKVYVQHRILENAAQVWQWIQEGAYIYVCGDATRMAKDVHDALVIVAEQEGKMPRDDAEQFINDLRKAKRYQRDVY
Put plainly: colorimetric nitric oxide synthase activity kit, A530. Type of assay: biochemical. To be noted: 0.5 mM L-NMMA, preincubated 30 C 2 h (as described for lysate proteins); assay 37 C 15 min; mode not stated.

Consider `CNC(=N)NCCC[C@H](N)C(=O)O` [L-NMMA], for which the “activity of NOS was reduced” value is given as “When L-NMMA was used, activity of NOS was reduced (Figure 8b)”.
